Publication PMC8920097, “Prediction of hERG inhibition of drug discovery compounds using biomimetic HPLC measurements” (ADMET & DMPK, 2021)
Where two headings read alike, the source gives them in different places.

Columns and labels:
[1] = Phospholipid binding at pH 7.4 on IAM PC.DD2 HPLC column; assay type: physicochemical; design: key to CHI IAM: approximates acetonitrile concentration (%) in mobile phase at elution
Experimental: The phospholipid-binding was measured using an IAM PC.DD2 column with dimensions of 100 x 4.6 mm (Regis Technologies Inc., Morton Grove, IL, USA). The gradient retention times were measured using a 50 mM ammonium acetate mobile phase with the pH adjusted to 7.4. The mobile phase flow rate was 1.5 mL/min. […] The cycle time was 6 min, plus an additional 1 min equilibration time was applied while the injector prepared for the next injection. The gradient retention times were calibrated with the acetophenone homologues for which the CHI IAM values have been established using isocratic measurements. […] The CHI Index on the IAM column (CHI IAM) approximates the acetonitrile concentration in the mobile phase when the compound elutes. […] The CHI IAM values have been converted to log k IAM values derived from the CHI IAM values using equation 1. It represents the equivalent value derived from several isocratic measurements with extrapolated log retention factors to 100 % aqueous mobile phase. The log k IAM values can be converted to log K (IAM) values and show linear relationships with the octanol/water partition coefficients.

[2] = CHI lipophilicity by gradient reversed-phase HPLC (Gemini NX-C-18); details: for chromatographic logD: Gemini NX-C-18 reversed-phase HPLC column, pH 7.4; for chromatographic logP: reversed-phase HPLC, Gemini NX-C-18 column (50 x 3 mm, 5 µm)
Experimental: The Chromatographic Hydrophobicity Index (CHI) was measured using the compounds’ calibrated gradient retention times obtained from an Agilent 1100 HPLC fitted with a Gemini NX-C-18 column (Phenomenex Ltd Macclesfield, UK) with dimensions of 50 x 3 mm and 5 μm particle size. […] The mobile phase B was 100 % acetonitrile. […] An acetonitrile linear gradient was used from 0 to 100 %. […] The retention time values for a standard set of compounds listed in Table 1 were used to convert the drug retention times to CHI values.

[3] = Charge character of the drugs at pH 7.4; assay type: physicochemical
[4] = test system: hERG channel; details: cited from earlier work
[5] = test system: alpha-1-acid-glycoprotein (AGP); assay: Protein binding on Chiralpak AGP HPLC column; details: pH 7.4, Chiralpak AGP
Experimental: The measurement of the biomimetic properties of the available drugs was conducted in our laboratories. Generic gradient HPLC methods were used to determine the chromatographic hydrophobicity Index (CHI) using mobile phases at three different pH values. The protein binding of the compounds was measured using immobilised human serum albumin (HSA), and alpha-1-acid-glycoprotein (AGP) stationary phases. The phospholipid-binding was measured using the immobilised artificial membrane (IAM) stationary phase. The aim was to establish relationships between the cardiotoxicity potential and the biomimetic binding properties of the drugs and to evaluate their predictive performance.

[6] = pH 7.4, derived from CHI IAM by equation 1
[7] = literature values, mean where several reported, molar

Compound | log k IAM [1, 6] | chromatographic logD [2] | chromatographic logP [2] | Charge [3] | CHI IAM ([1]; pH 7.4) | hERG pIC50 [4, 7] | log k AGP [5] | hERG pIC50 [4] | log k IAM ([1]; pH 7.4)
CN(C)CCC=C1c2ccccc2CCc2ccccc21 [Amitriptyline] | 2.96 | 2.65 | 5.21 | Basic | – | – | – | – | –
CN1CCc2cccc3c2[C@H]1Cc1ccc(O)c(O)c1-3 [Apomorphine] | 2.24 | 1.17 | 2.66 | – | – | – | – | – | –
CC(C)NCC(O)COc1ccc(CC(N)=O)cc1 (stereo not shown) [Atenolol] | 1.14 | – | – | Basic | – | – | – | – | –
O=C(O)COCCN1CCN(C(c2ccccc2)c2ccc(Cl)cc2)CC1 (stereo not shown) [Cetirizine] | 2.29 | – | – | – | – | – | – | – | –
CCN(CC)CCCC(C)Nc1ccnc2cc(Cl)ccc12 (stereo not shown) [Chloroquine] | – | – | – | – | – | 5.03 | – | – | –
CN(C)CCCN1c2ccccc2Sc2ccc(Cl)cc21 [Chlorpromazine] | 2.64 | -0.58 | 0.97 | Basic | 48.16 | 5.65 | 1.79 | – | –
O=C(O)c1cn(C2CC2)c2cc(N3CCNCC3)c(F)cc2c1=O [Ciprofloxacin] | 1.59 | – | – | Zwitterionic | – | – | – | – | –
CN(C)CCCC1(c2ccc(F)cc2)OCc2cc(C#N)ccc21 (stereo not shown) [Citalopram] | – | – | – | Basic | – | – | – | 5.27 | –
CN1CCC[C@@H]1CCO[C@](C)(c1ccccc1)c1ccc(Cl)cc1 [Clemastine] | 3.19 | 3.18 | 3.18 | Basic | – | – | 1.18 | – | –
CNCCCN1c2ccccc2CCc2ccccc21 [Desipramine] | – | – | – | Basic | – | 5.36 | 0.94 | – | –
COc1ccc([C@@H]2Sc3ccccc3N(CCN(C)C)C(=O)[C@@H]2OC(C)=O)cc1 [Diltiazem] | 2.35 | 2.76 | 3.12 | Basic | 41.95 | – | – | – | –
CN(C)CCOC(c1ccccc1)c1ccccc1 [Diphenhydramine] | 2.06 | – | – | Basic | – | – | – | – | –
O=C(O[C@@H]1C[C@@H]2C[C@H]3C[C@H](C1)N2CC3=O)c1c[nH]c2ccccc12 [Dolasetron] | 1.95 | 1.46 | 1.46 | Weak Base | – | – | – | – | –
CC(C)(C)c1ccc(C(=O)CCCN2CCC(OC(c3ccccc3)c3ccccc3)CC2)cc1 [Ebastine] | 3.12 | 4.96 | 6.54 | Basic | – | – | 1.34 | – | –
CC[C@H]1OC(=O)[C@H](C)[C@@H](O[C@H]2C[C@@](C)(OC)[C@@H](O)[C@H](C)O2)[C@H](C)[C@@H](O[C@@H]2O[C@H](C)C[C@H](N(C)C)[C@H]2O)[C@](C)(O)C[C@@H](C)C(=O)[C@H](C)[C@@H](O)[C@]1(C)O [Erythromycin] | 2.20 | 1.31 | 2.6 | Basic | 38.79 | – | – | – | –
CNCCC(Oc1ccc(C(F)(F)F)cc1)c1ccccc1 (stereo not shown) [Fluoxetine] | – | – | – | – | – | 5.73 | – | – | –
CCC1=C(C)CN(C(=O)NCCc2ccc(S(=O)(=O)NC(=O)N[C@H]3CC[C@H](C)CC3)cc2)C1=O [Glimepiride] | 1.83 | 2.42 | 3.25 | – | 30.76 | – | 0.40 | 4.13 | –
CN(C)CCCN1c2ccccc2CCc2ccccc21 [Imipramine] | – | – | – | – | – | – | 0.96 | – | –
C[C@H]1COc2c(N3CCN(C)CC3)c(F)cc3c(=O)c(C(=O)O)cn1c23 [Levofloxacin] | 1.73 | 0.54 | – | Zwitterionic | 28.55 | – | -0.74 | 2.93 | –
CCN(CC)CC(=O)Nc1c(C)cccc1C [Lidocaine] | 1.91 | – | – | Weak Base | – | – | – | – | –
COCC(=O)O[C@]1(CCN(C)CCCc2nc3ccccc3[nH]2)CCc2cc(F)ccc2[C@@H]1C(C)C [Mibefradil] | 2.96 | 2.96 | 3.99 | Basic | – | – | 1.11 | 5.88 | –
Clc1ccc(COC(Cn2ccnc2)c2ccc(Cl)cc2Cl)c(Cl)c1 (stereo not shown) [Miconazole] | 2.89 | 4.64 | 4.7 | Weak Base | 53.72 | – | 1.26 | 5.68 | –
CC1COc2c(N3CCN(C)CC3)c(F)cc3c(=O)c(C(=O)O)cn1c23 (stereo not shown) [Ofloxacin] | 1.62 | 0.53 | – | Zwitterionic | – | – | -0.81 | 2.93 | –
Cc1cc2c(s1)Nc1ccccc1N=C2N1CCN(C)CC1 [Olanzapine] | – | – | – | Weak Base | – | – | – | – | 2.71
C=C[C@H]1C[N@@]2CC[C@H]1C[C@@H]2[C@@H](O)c1ccnc2ccc(OC)cc12 [Quinidine] | 2.71 | – | – | Basic | – | – | 0.68 | 5.51 | –
Cc1nc2n(c(=O)c1CCN1CCC(c3noc4cc(F)ccc34)CC1)CCCC2 [Risperidone] | 2.09 | – | – | Weak Base | – | – | – | – | –
Cc1ccc(O)c([C@H](CCN(C(C)C)C(C)C)c2ccccc2)c1 [Tolterodine] | 2.83 | 2 | 4.95 | – | – | – | – | – | –
Nicotine | – | – | – | – | – | – | – | 3.61 | –
Prazosin | – | – | – | – | – | 5.22 | – | – | –

Now from value to compound, other results behind:

log k IAM [1, 6] | chromatographic logD [2] | chromatographic logP [2] | Charge [3] | CHI IAM ([1]; pH 7.4) | Compound | hERG pIC50 [4, 7] | log k AGP [5] | hERG pIC50 [4] | log k IAM ([1]; pH 7.4)
1.93 | 2.07 | 3.17 | Acidic | – | COc1ccc(Cl)cc1C(=O)NCCc1ccc(S(=O)(=O)NC(=O)NC2CCCCC2)cc1 [Glibenclamide] | – | – | – | –
2.16 | – | – | – | 37.86 | CC(=O)N1CCN(c2ccc(OCC3COC(Cn4ccnc4)(c4ccc(Cl)cc4Cl)O3)cc2)CC1 (stereo not shown) [Ketoconazole] | – | – | – | –
2.16 | -0.14 | -0.14 | – | 37.89 | CCn1cc(C(=O)O)c(=O)c2cc(F)c(N3CCNC(C)C3)c(F)c21 (stereo not shown) [Lomefloxacin] | – | – | – | –
2.46 | – | – | Weak Base | – | CCOC(=O)N1CCC(=C2c3ccc(Cl)cc3CCc3cccnc32)CC1 [Loratadine] | – | – | – | –
2.46 | 4.09 | – | – | 44.38 | CC[C@H](C)C(=O)O[C@H]1C[C@@H](C)C=C2C=C[C@H](C)[C@H](CC[C@@H]3C[C@@H](O)CC(=O)O3)[C@H]21 [Lovastatin] | – | – | – | –
3.03 | 2.03 | 4.79 | Basic | – | CNCCCC12CCC(c3ccccc31)c1ccccc12 [Maprotiline] | 5.17 | 0.99 | – | –
– | 3.15 | 3.19 | Neutral | – | CCOC(=O)C1=C(C)NC(C)=C(C(=O)OC)C1c1cccc([N+](=O)[O-])c1 (stereo not shown) [Nitrendipine] | 5.10 | 0.69 | – | –
1.29 | -0.59 | 0.95 | Basic | – | CCN(CC)CCNC(=O)c1ccc(N)cc1 [Procainamide] | – | – | – | –
– | 2.55 | 2.69 | – | – | OCCOCCN1CCN(C2=Nc3ccccc3Sc3ccccc32)CC1 [Quetiapine] | – | – | – | –
2.2 | 3.25 | 3.41 | Neutral | 38.64 | CC(C)c1nc(CN(C)C(=O)N[C@H](C(=O)N[C@@H](Cc2ccccc2)C[C@H](O)[C@H](Cc2ccccc2)NC(=O)OCc2cncs2)C(C)C)cs1 [Ritonavir] | – | 0.64 | – | –
2.03 | 2.59 | 2.62 | Weak Base | 35.00 | CCCc1nn(C)c2c(=O)[nH]c(-c3cc(S(=O)(=O)N4CCN(C)CC4)ccc3OCC)nc12 [Sildenafil] | – | – | – | –
1.01 | – | – | – | – | Cc1cc(NS(=O)(=O)c2ccc(N)cc2)no1 [Sulfamethoxazole] | – | – | – | –
3.65 | 3.02 | 5.46 | – | – | CSc1ccc2c(c1)N(CCC1CCCCN1C)c1ccccc1S2 (stereo not shown) [Thioridazine] | – | – | – | –
